# According to article PMC7279355, “Preparation of Biphenyl-Conjugated Bromotyrosine for Inhibition of PD-1/PD-L1 Immune Checkpoint Interactions” (International Journal of Molecular Sciences, 2020):
# Numbered stars: 1 amine (or outer) side, 2 acyl side, 3 side chain; on linkers, the order of the positions; unused ones are H or OH. Square brackets hold non-standard residues; d marks the D form. Peptide text beside a SMILES is read from it. X1 = Cc1c(COc2ccc(C[C@H](N[*:1])C(=O)[*:2])cc2Br)cccc1-c1ccccc1
# Molecular target: T1, PD-1/PD-L1 interaction (Homo sapiens, UniProt Q9NZQ7)
# T1 construct: purchased PerkinElmer AL356 HV/C/F
# Test: AlphaLISA amplified luminescence proximity homogeneous assay, inhibition of PD-1/PD-L1 binding
# Settings: for IC50: AlphaLISA
# [1] = His-tagged PD-L1 and biotin-conjugated PD-1, 25 °C, 90 min
# Excerpt: To evaluate the binding affinities of the compounds for PD-L1, we used the amplified luminescence proximity homogeneous assay (Alpha) by using the AlphaLISA® assay kit [38]. This assay is based on photoinduced energy transfer between donor and acceptor beads conjugated to PD-1 and PD-L1, respectively (Figure S6).
# In this assay, direct binding of an inhibitor to PD-L1 is detected by photoinduced energy transfer (Figure S6). Biotin-conjugated PD-1 is attached to streptavidin-coated donor beads and histidine (His)-tagged PD-L1 is attached to anti-His-conjugated acceptor beads. Photoexcitation of the donor beads at 680 nm yields singlet oxygen.
# Positive and negative technical controls were included in parallel. Positive controls contained buffer (2 μL) in place of solution 1–10, and negative controls contained only the beads (2 μL each) and buffer (6 μL).
# The reaction samples (10 μM) were placed in a 384-well microplate and photoirradiated at 680 nm from the top. […] IC50 values were estimated from a sigmoidal curve of fluorescence intensity vs. inhibitor concentration using a relative weighting method (1/Y^2 weighting) with GraphPad Prism 8 (GraphPad Software Inc., San Diego, CA, USA).
# T1 sequence (Q9NZQ7 19-238 limits assumed): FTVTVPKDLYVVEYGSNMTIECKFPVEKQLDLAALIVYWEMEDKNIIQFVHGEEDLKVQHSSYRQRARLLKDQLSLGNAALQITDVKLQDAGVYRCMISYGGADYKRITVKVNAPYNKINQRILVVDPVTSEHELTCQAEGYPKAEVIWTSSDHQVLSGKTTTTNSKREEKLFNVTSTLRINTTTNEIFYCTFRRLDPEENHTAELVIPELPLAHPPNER
Compound,IC50 [1],improvement of IC50 relative to BMS-8 (X (1.5 μM) vs BMS-8 ([…])),IC50 (positive control)
CSCC[C@H](NC(=O)[C@H](CCCCN)NC(=O)[C@H](CC(N)=O)NC(=O)[C@H](Cc1ccc(OCc2cccc(-c3ccccc3)c2C)c(Br)c1)NC(=O)[C@H](CCCNC(=N)N)NC(=O)[C@H](CCC(=O)O)NC(=O)[C@@H](N)CS)C(=O)O [CERXNKM] (H-CER[X1]NKM-OH),308 µM,,
"Cc1c(CO)cccc1-c1ccccc1 [Compound1, 3-hydroxymethyl-2-methylbiphenyl]",309 µM,,
"CC(C)(C)OC(=O)[C@H](Cc1ccc(O)c(Br)c1)NC(=O)OCC1c2ccccc2-c2ccccc21 [Compound4, (S)-tert-Butyl 2-({[(9H-fluoren-9-yl)methoxy]carbonyl}amino)-3-(3-bromo-4-hydroxyphenyl)propanoate]",1060 µM,,
"Cc1c(COc2ccc(C[C@H](NC(=O)OCC3c4ccccc4-c4ccccc43)C(=O)OC(C)(C)C)cc2Br)cccc1-c1ccccc1 [Compound5, (S)-tert-Butyl 2-({[(9H-fluoren-9-yl)methoxy]carbonyl}amino)-3-{3-bromo-4-[(2-methyl-1,1’-biphenyl-3-yl)methoxy]phenyl}propanoate]",897 µM,,
"Cc1c(COc2ccc(C[C@H](NC(=O)OCC3c4ccccc4-c4ccccc43)C(=O)O)cc2Br)cccc1-c1ccccc1 [Compound6, (S)-2-({[(9H-fluoren-9-yl)methoxy]carbonyl}amino)-3-{3-bromo-4-[(2-methyl-1,1’-biphenyl-3-yl)methoxy]phenyl}propanoic acid]",1420 µM,,
CC[C@H](C)[C@H](NC(=O)[C@H](CC(N)=O)NC(=O)[C@H](CC(N)=O)NC(=O)[C@H](Cc1ccc(OCc2cccc(-c3ccccc3)c2C)c(Br)c1)NC(=O)[C@H](CCCNC(=N)N)NC(=O)[C@H](Cc1c[nH]c2ccccc12)NC(=O)[C@@H](N)Cc1ccccc1)C(=O)O [FWRXNNI] (H-FWR[X1]NNI-OH),312 µM,,
Cc1c(COc2ccc(C[C@H](NC(=O)CN)C(=O)O)cc2Br)cccc1-c1ccccc1 [GX],448 µM,,
Cc1c(COc2ccc(C[C@H](NC(=O)[C@@H](N)CCCNC(=N)N)C(=O)N[C@@H](CC(N)=O)C(=O)O)cc2Br)cccc1-c1ccccc1 [RXN],405 µM,,
Cc1c(COc2ccc(C[C@H](NC(=O)[C@@H](N)Cc3c[nH]c4ccccc34)C(=O)NCC(=O)O)cc2Br)cccc1-c1ccccc1 [WXG],405 µM,,
"Cc1c(COc2ccc(C[C@H](N)C(=O)O)cc2Br)cccc1-c1ccccc1 [X, (S)-2-amino-3-[3-bromo-4-{(2-methyl-1,1′-biphenyl-3-yl)methoxy}phenyl]propanoic acid]",1.5 µM,about five,
Cc1c(COc2ccc(C[C@H](N)C(=O)N[C@@H](C)C(=O)O)cc2Br)cccc1-c1ccccc1 [XA],22.3 µM,,
Cc1c(COc2ccc(C[C@H](N)C(=O)NCC(=O)NCC(=O)O)cc2Br)cccc1-c1ccccc1 [XGG],6510 µM,,
Cc1c(COc2ccc(C[C@H](N)C(=O)NCC(=O)O)cc2Br)cccc1-c1ccccc1 [XG],2.1 µM,,
Cc1c(COc2ccc(C[C@H](N)C(=O)N[C@@H](CO)C(=O)O)cc2Br)cccc1-c1ccccc1 [XS],2650 µM,,
Cc1c(COc2ccc(C[C@H](N)C(=O)N[C@@H](Cc3c[nH]c4ccccc34)C(=O)O)cc2Br)cccc1-c1ccccc1 [XW],845 µM,,
"nivolumab: anti-PD-1 mAb, positive control [reference compound]",,,0.0051 µM
